Results published in US9315475B2 (MERCK SHARP & DOHME CORP., priority 2011, dated 2016).
pEC50: −log10 of the molar value.

test system: HIV-1 (H9IIIB strain); test: Antiviral acute infection assay in cell culture (Spread); assay type: cell-based; conditions: Human immunodeficiency virus 1, T-lymphoid, HIV-1 H9IIIB infection of MT-4 human T-lymphoid cells in 10% FBS; mean of at least two independent experiments
Source text: Antiviral Assays in Cell Culture (“Spread”)
Acute Infection Assay (“Spread”) data were generated using HIV-1 (H9IIIB strain) infection of MT-4 human T-lymphoid cells in 10% FBS, and according to the methods disclosed by J. P. Vacca et al, “L-735,524: An orally bioavailable human immunodeficiency virus type 1 protease inhibitor,” Proc. Natl. Acad. Sci. USA, Vol. 91, pp. 4096-4100 (April 1994).

Structure (SMILES) | pEC50
O=C(CC(c1ccc(F)cc1)c1ccc(F)cc1)Nc1cncc(F)c1CC[C@@H]1CN[C@H](COC(=O)NC(CO)C2CC2)CO1 (stereo partly drawn) [Example 175, {(3S,6R)-6-[2-(3-{[3,3-bis(4-fluoro-phenyl)propanoyl]amino}-5-fluoropyridin-4-yl)ethyl]morpholin-3-yl}methyl (1-cyclopropyl-2-hydroxyethyl)carbamate] | 7.41
NC(=O)[C@H]1CCCCC1NC(=O)OC[C@@H]1CO[C@H](CCc2c(F)cncc2NC(=O)CC(c2ccc(F)cc2)c2ccc(F)cc2)CN1 (stereo partly drawn) [Example 187, {(3S,6R)-6-[2-(3-{[3,3-bis(4-fluoro-phenyl)propanoyl]amino}-5-fluoropyridin-4-yl)ethyl]morpholin-3-yl}methyl [(2S)-2-carbamoylcyclohexyl] carbamate] | 6.68
O=C(CC(c1ccc(F)cc1)c1ccc(F)cc1)Nc1cncc(F)c1CC[C@@H]1CN[C@H](COC(=O)NCCNc2ccccc2)CO1 [Example 168, {(3S,6R)-6-[2-(3-{[3,3-bis(4-fluorophenyl)propanoyl]amino}-5-fluoropyridin-4-yl)ethyl]morpholin-3-yl}methyl [2-(phenyl-amino)ethyl]carbamate] | 7.89
N#Cc1ncccc1[C@@H](CC(=O)Nc1cccc(F)c1CC[C@@H]1CN[C@H](COC(=O)NCC(F)(F)F)CO1)c1ccc(F)cc1 [Example 178, {(3S,6R)-6-[2-(2-{[(3S)-3-(2-cyanopyridin-3-yl)-3-(4-fluorophenyl)propanoyl]amino}-6-fluoro-phenyl)ethyl]morpholin-3-yl}methyl (2,2,2-trifluoroethyl)carbamate] | 7.07
CNC(=O)OC[C@@H]1CO[C@H](CCc2c(F)cncc2NC(=O)CC(c2ccc(F)cc2)c2ccc(F)cc2)CN1 [Example 177, {(3S,6R)-6-[2-(3-{[3,3-bis(4-fluoro-phenyl)propanoyl]amino}-5-fluoropyridin-4-yl)ethyl]morpholin-3-yl}methyl methylcarbamate] | 7.39
COC(=O)N[C@H](C(=O)Nc1cccc(F)c1OC[C@@H]1CN[C@H](COC(N)=O)CO1)[C@@H](c1ccc(F)cc1)c1cccc(F)c1 [Example 117, (βS)—N-[2-({(2S,5S)-5-[(Carbamoyloxy)methyl]morpholin-2-yl}methoxy)-3-fluorophenyl]-4-fluoro-β-(3-fluorophenyl)-Nα-(methoxycarbonyl)-L-phenylalaninamide] | 7.74
N[C@H](C(=O)Nc1cccc(F)c1CC[C@@H]1CN[C@H](COC(=O)NCCOc2ccccc2)CO1)C(c1ccc(F)cc1)c1ccc(F)cc1 [Example 222, 4-fluoro-N-(3-fluoro-2-{2-[(2R,5S)-5-({[(2-phenoxyethyl)carbamoyl]oxy}methyl)morpholin-2-yl]ethyl}phenyl)-β-(4-fluorophenyl)-L-phenylalaninamide] | 7.28
O=C(CC(c1ccc(F)cc1)c1ccc(F)cc1)Nc1cncc(F)c1CC[C@@H]1CN[C@H](COC(=O)NC2CCOC2)CO1 (stereo partly drawn) [Example 173, {(3S,6R)-6-[2-(3-{[3,3-bis(4-fluoro-phenyl)propanoyl]amino}-5-fluoropyridin-4-yl)ethyl]morpholin-3-yl}methyl tetrahydrofuran-3-ylcarbamate] | 7.43
O=C(C[C@@H](c1ccc(F)cc1)c1cccc(F)c1F)Nc1cccc(F)c1CC[C@@H]1CN[C@H](COC(=O)NCC(F)(F)F)CO1 [Example 153, {(3S,6R)-6-[2-(2-{[(3S)-3-(2,3-difluorophenyl)-3-(4-fluorophenyl)propanoyl]amino}-6-fluoro-phenyl)ethyl]morpholin-3-yl}methyl (2,2,2-trifluoroethyl)carbamate] | 6.89
COC(=O)N[C@H](C(=O)Nc1cccc(F)c1CC[C@@H]1CN[C@H](COC(=O)NCC(F)(F)F)CO1)[C@H](c1ccccc1)c1ccc(OC)c(Cl)c1 [Example 109, (βR)-3-Chloro-N-(3-fluoro-2-{2-[(2R,5S)-5-({[(2,2,2-trifluoroethyl)carbamoyl]oxy}methyl)morpholin-2-yl]ethyl}phenyl)-Nα-(methoxycarbonyl)-O-methyl-β-phenyl-L-tyrosinamide] | 6.47
N#Cc1cccc([C@@H](CC(=O)Nc2cccc(F)c2CC[C@@H]2CN[C@H](COC(=O)NCC(F)(F)F)CO2)c2ccc(F)cc2)c1 [Example 160, {(3S,6R)-6-[2-(2-{[(3S)-3-(3-cyanophenyl)-3-(4-fluorophenyl)propanoyl]amino}-6-fluoro-phenyl)ethyl]morpholin-3-yl}methyl (2,2,2-trifluoroethyl)carbamate] | 7.51
O=C(C[C@H](c1ccc(F)cc1)c1ccc(Cl)c(F)c1)Nc1cncc(F)c1CC[C@@H]1CN[C@H](COC(=O)NCC(F)(F)F)CO1 [Example 182, {(3S,6R)-6-[2-(3-{[(3R)-3-(4-chloro-3-fluorophenyl)-3-(4-fluoro-phenyl)propanoyl]amino}-5-fluoropyridin-4-yl)ethyl]morpholin-3-yl}methyl (2,2,2-trifluoroethyl)carbamate] | 7.77
O=C(C[C@@H](c1ccc(F)cc1)c1ccccc1F)Nc1cncc(F)c1CC[C@@H]1CN[C@H](COC(=O)NCC(F)(F)F)CO1 [Example 158, {(3S,6R)-6-[2-(3-fluoro-5-{[(3S)-3-(2-fluorophenyl)-3-(4-fluorophenyl)propanoyl]amino}pyridin-4-yl)ethyl]morpholin-3-yl]methyl (2,2,2-trifluoroethyl)carbamate] | 7.47
O=C(C[C@@H](c1ccc(F)cc1)c1ccncc1F)Nc1cccc(F)c1CC[C@@H]1CN[C@H](COC(=O)NCC(F)(F)F)CO1 [Example 138, {(3S,6R)-6-[2-(2-Fluoro-6-{[(3S)-3-(4-fluorophenyl)-3-(3-fluoropyridin-4-yl)propanoyl]amino}phenyl)ethyl]morpholin-3-yl}methyl (2,2,2-trifluoroethyl)carbamate] | 7.51
CC1(C(=O)N[C@H](C(=O)Nc2cccc(F)c2CC[C@@H]2CN[C@H](COC(=O)NCC(F)(F)F)CO2)C(c2ccc(F)cc2)c2ccc(F)cc2)CC1 [Example 142, 4-Fluoro-β-(4-fluorophenyl)-N-(3-fluoro-2-{2-[(2R,5S)-5-({[(2,2,2-trifluoroethyl)carbamoyl]oxy}methyl)morpholin-2-yl]ethyl}phenyl)-Nα-[(1-methylcyclopropyl)carbonyl]-L-phenylalaninamide] | 6.82
COCCOc1ccc([C@@H](CC(=O)Nc2cncc(F)c2CC[C@@H]2CN[C@H](COC(=O)NCC(F)(F)F)CO2)c2ccc(F)cc2)cc1 [Example 181, [(3S,6R)-6-{2-[3-fluoro-5-({(3R)-3-(4-fluorophenyl)-3-[4-(2-methoxy-ethoxy)phenyl]propanoyl}amino)pyridin-4-yl]ethyl}morpholin-3-yl]methyl (2,2,2-trifluoroethyl)carbamate] | 7.30
COC(=O)N[C@H](C(=O)Nc1cccc(F)c1CC[C@@H]1CN[C@H](COC(=O)NCC(F)(F)F)CO1)[C@@H](c1ccncc1)c1ccc(F)cc1 [Example 112, (βR)-4-Fluoro-N-(3-fluoro-2-{2-[(2R,5S)-5-({[(2,2,2-trifluoroethyl)carbamoyl]oxy}methyl)morpholin-2-yl]ethyl}phenyl)-Nα-(methoxycarbonyl)-β-pyridin-4-yl-L-phenylalaninamide] | 6.70
COC(=O)N[C@H](C(=O)Nc1cccc(F)c1CC[C@@H]1CN[C@H](COC(=O)NCC(F)(F)F)CO1)[C@@H](c1ccc(Cl)cc1)c1ccc2c(c1)OCO2 [Example 110, (βS)-β-1,3-Benzodioxol-5-yl-4-chloro-N-(3-fluoro-2-{2-[(2R,5S)-5-({[(2,2,2-trifluoroethyl)carbamoyl]oxy}methyl)morpholin-2-yl]ethyl}phenyl)-Nα-(methoxycarbonyl)-L-phenylalaninamide] | 8.16
O=C(CC(c1ccc(F)cc1)c1ccc(F)cc1)Nc1cncc(F)c1CC[C@@H]1CN[C@H](COC(=O)NC2c3ccccc3C[C@H]2O)CO1 (stereo partly drawn) [Example 185, {(3S,6R)-6-[2-(3-{[3,3-bis(4-fluoro-phenyl)propanoyl]amino}-5-fluoropyridin-4-yl)ethyl]morpholin-3-yl}methyl [(2R)-2-hydroxy-2,3-dihydro-1H-inden-1-yl]carbamate] | 7.17
N[C@H](C(=O)Nc1cccc(F)c1CC[C@@H]1CN[C@H](COC(=O)N[C@H]2CCCOC2)CO1)C(c1ccc(F)cc1)c1ccc(F)cc1 [Example 122, 4-Fluoro-β-(4-fluorophenyl)-N-(3-fluoro-2-{2-[(2R,5S)-5-({[(3S)-tetrahydro-2H-pyran-3-ylcarbamoyl]oxy}methyl)morpholin-2-yl]ethyl}phenyl)-L-phenylalaninamide] | 7.36
NC(=O)OC[C@@H]1CO[C@H](CCc2c(F)cccc2NC(=O)CC(c2ccccc2)c2ccccc2)CN1 [Example 152, [(3S,6R)-6-(2-{2-[(3,3-diphenylpropanoyl)amino]-6-fluorophenyl}ethyl)morpholin-3-yl] methyl carbamate] | 7.06
O=C(C[C@@H](c1ccc(F)cc1)c1ccccc1C(F)(F)F)Nc1cncc(F)c1CC[C@@H]1CN[C@H](COC(=O)NCC(F)(F)F)CO1 [Example 180, [(3S,6R)-6-{2-[3-fluoro-5-({(3S)-3-(4-fluorophenyl)-3-[2-(trifluoro-methyl)phenyl]propanoyl}amino)pyridin-4-yl]ethyl}morpholin-3-yl]methyl (2,2,2-trifluoroethyl)carbamate] | 6.51
O=C(C[C@@H](c1ccc(F)cc1)c1cncc(C(F)(F)F)c1)Nc1cncc(F)c1CC[C@@H]1CN[C@H](COC(=O)NCC(F)(F)F)CO1 [Example 184, [(3S,6R)-6-{2-[3-fluoro-5-({(3S)-3-(4-fluorophenyl)-3-[5-(trifluoromethyl)pyridin-3-yl]propanoyl}amino)pyridin-4-yl]ethyl}morpholin-3-yl]methyl (2,2,2-trifluoroethyl)carbamate] | 7.82
